Where two headings read alike, the source gives them in different places.
How the values were obtained:
[1] = biological target: P dimers of VA387 (GII.4) binding to saliva HBGAs (Norovirus GII.4 (Human calicivirus NLV/VA98387/1998), UniProt Q913Z3); test: Saliva-based NoV/HBGA blocking assay; parameters: species or system Norovirus VA387 (GII.4)
Procedure: (§1) Saliva-based NoV-HBGA binding assays were performed as described previously using P dimers of VA387 (GII.4) as NoV surrogates and saliva samples and/or synthetic oligosaccharides as HBGA sources. Briefly, synthetic oligosaccharides and/or boiled saliva samples with defined HBGAs phenotype were coated on 96-well microtiter plates, after blocking with nonfat milk, P dimer of VA387 were added. The bound P dimer was detected using a guinea pig antiserum against NoVs VLPs, followed by the addition of horseradish peroxidase (HRP)-conjugated goat anti-guinea pig IgG. The bound HRP conjugates were colorized by the TMB kit (Kirkegaard & Perry Laboratories), which was read an EIA spectrum reader (Tecan). The synthetic oligosaccharide-PAA conjugates (2 μg/ml, GlycoTech Corporation, Rockville, Md.) were captured to a microtiter plate through coated streptavidin (5 μg/ml).
(§2) Blocking effects of the hit compounds were measured by a pre-incubation of the P dimers with the compounds at given concentrations for 30 min before the P dimers were added to the coated saliva samples or HBGA oligosaccharides in a binding assay. The blocking activity of a compound was defined as its concentration yielding 50% inhibition (IC50) in the binding assay. IC50 calculation was performed using Probit regression analysis and correlation analysis between IC50 and Ki values was performed with nonparametric Spearman's r (two-tailed) by using SPSS statistical software version 13.0 (SPSS, Chicago, Ill.).

[2] = biological target: VA387 P dimer binding to the synthetic A and B oligosaccharides (Norovirus GII.4 (Human calicivirus NLV/VA98387/1998), UniProt Q913Z3); test: Synthetic HBGA oligosaccharide-PAA conjugate blocking assay; parameters: species or system Norovirus VA387 (GII.4)
VA387 P dimer binding to the synthetic A and B oligosaccharides, sequence (Q913Z3 214-539): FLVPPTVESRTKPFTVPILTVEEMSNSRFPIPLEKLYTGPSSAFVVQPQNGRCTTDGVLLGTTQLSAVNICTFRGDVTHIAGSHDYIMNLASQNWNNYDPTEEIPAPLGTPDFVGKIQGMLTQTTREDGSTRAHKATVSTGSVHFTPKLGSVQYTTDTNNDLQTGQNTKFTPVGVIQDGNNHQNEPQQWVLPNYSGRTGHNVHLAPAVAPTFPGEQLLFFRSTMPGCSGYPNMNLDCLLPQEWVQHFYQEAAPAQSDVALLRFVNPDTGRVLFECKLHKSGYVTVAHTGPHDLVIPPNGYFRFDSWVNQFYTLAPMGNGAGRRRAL
Procedure: as §1, §2

[3] = MTS cytotoxicity assay; assay type: cell-based, human; rhesus monkey; settings: HeLa and LLC-MK2 cells, 3 days incubation; cell line per value not stated
Procedure: This assay was performed using CellTiter 96 aqueous nonradioactive cell proliferation kits (Promega, Madison, Wis.) as described elsewhere. Briefly, HeLa and LLC-MK2 cells were seeded at 5×10^4 cells/ml onto a 96-well plate overnight. After an incubation with each compound at various concentrations for 3 days (the compound was added one time at the beginning of the incubation), the culture medium was replaced with fresh one with 100 μl of MTS-phenazine methosulfate/well. After a further incubation at 37° C. for 2 h, the color products of MTS were measured with a plate reader at 490 nm. The cytotoxicities of individual compounds were indicated by the decrease in cellular reduction of MTS into the colored product. The 50% cytotoxic concentrations (CC50) were determined as the concentrations of the compounds that caused 50% inhibition of cell growth compared with that of control cells without a compound.

[4] = Activity (IC50), blocking the binding of NoV P dimer to HBGAs, given as range or bound
[5] = blocking assay, type A saliva as HBGA source, mean ± standard deviation, read-out: IC50 Saliva A
[6] = blocking assay, type B saliva as HBGA source, mean ± standard deviation, read-out: IC50 Saliva B
[7] = IC50 Saliva A, blocking assay, type A saliva as HBGA source, mean ± standard deviation
[8] = IC50 Saliva B, blocking assay, type B saliva as HBGA source, mean ± standard deviation

P dimers of VA387 (GII.4) binding to saliva HBGAs, sequence (Q913Z3 214-539): as above

Row | Compound | IC50 [1, 4] | IC50 [1, 5] | IC50 [1, 6] | IC50 [1, 7] | IC50 [1, 8] | IC50 [2] | CC50 at 3 days [3]
1 | Cc1noc2c1C1(C)CCC3C(CC=C4CC(O)CCC43C)C1C2 (stereo not drawn) [Compound 18] | 20 to 40 µM | 33.9 ± 1.67 µM | 34.5 ± 1.93 µM | – | – | – | –
2 | C[C@]12CC[C@H]3[C@@H](CCC4=C/C(=N/OCC(=O)NCC(=O)O)CC[C@@]43C)[C@@H]1CC[C@H]2O [Compound 10] | 10 to 20 µM | – | – | 18.7 ± 0.35 µM | 18.6 ± 0.62 µM | – | –
3 | CC12CCC3C(CCC4CC(=O)CCC43C)C1CCC2O (stereo not drawn) [Compound 19] | 20 to 40 µM | 36.9 ± 1.47 µM | 35.7 ± 1.06 µM | – | – | – | –
4 | Cc1ccc(C2CC(=O)Nc3c2ccc2ccccc32)cc1[N+](=O)[O-] (stereo not drawn) [Compound 17] | 20 to 40 µM | – | 33.7 ± 1.27 µM | – | – | – | –
5 | CC(CCC(=O)O)C1CCC2C3CC=C4CC(O)CCC4(C)C3CCC12C (stereo not drawn) [Compound 4] | – | – | 7.65 ± 0.33 µM | – | – | < 10 µM | –
6 | O=C1CC(c2ccc([N+](=O)[O-])cc2)c2ccc3ccccc3c2N1 (stereo not drawn) [Compound 13] | 20 to 40 µM | 24.5 ± 0.98 µM | 26.3 ± 1.24 µM | – | – | – | –
7 | C[C@]12CC[C@H](O)C[C@@H]1CC[C@@H]1[C@@H]2CC[C@@]2(C)[C@H]1CC[C@]2(C)O [Compound 3] | – | – | 3.39 ± 0.24 µM | – | – | < 10 µM | –
8 | C/C(=N/O)C1=CCC2C3CC[C@H]4C/C(=N\O)CC[C@]4(C)C3CC[C@]12C (stereo partly drawn) [Compound 1] | – | 2.38 ± 0.15 µM | 2.54 ± 0.21 µM | – | – | < 10 µM | –
9 | Nc1ccc2c(c1)C1C=CCC1C(c1ccc([N+](=O)[O-])cc1)N2 (stereo not drawn) [Compound 6] | 10 to 20 µM | 12.6 ± 0.87 µM | 12.8 ± 0.64 µM | – | – | – | –
10 | C[C@]12CC[C@H](O)C=C1CC[C@@H]1C2CC[C@@]2(C)C1CC[C@@]21CCC(=O)O1 (stereo partly drawn) [Compound 15] | – | – | – | 28.5 ± 1.54 µM | 29.4 ± 1.24 µM | – | –
11 | O=C(O)c1ccc(C2Nc3c(F)cccc3C3C=CCC32)cc1 (stereo not drawn) [Compound 20] | 20 to 40 µM | 38 ± 2.01 µM | 39.4 ± 1.53 µM | – | – | – | –
12 | CC(=O)C1CCC2C3CC[C@H]4CC(O)CCC4(C)C3CCC12C (stereo partly drawn) [Compound 2] | 1 to 10 µM | – | – | 2.9 ± 0.33 µM | 2.93 ± 0.18 µM | < 10 µM | 267 µM
13 | CC1(C)CC(=O)C2=C(C1)c1c(ccc3ccccc13)NC2 [Compound 8] | 10 to 20 µM | 14.1 ± 0.53 µM | 14.9 ± 0.71 µM | – | – | – | –
14 | CC1CCc2c(sc3ncn(C(C)C(=O)N/N=C/c4c(O)ccc5ccccc45)c(=O)c23)C1 (stereo not drawn) [Compound 9] | – | 17 ± 1.06 µM | 16.8 ± 0.87 µM | – | – | – | –
15 | CC(=O)C1=CCC2[C@@H]3CC=C4C[C@H](O)CC[C@]4(C)C3CC[C@]12C (stereo partly drawn) [Compound 14] | 20 to 40 µM | – | – | 24.8 ± 2.02 µM | 25.1 ± 1.32 µM | – | –
16 | CNc1cc([N+](=O)[O-])cc2c1NC(c1ccccn1)C1CC=CC21 (stereo not drawn) [Compound 12] | 20 to 40 µM | – | – | – | – | – | –
17 | CC(=O)OCC(=O)C1CCC2C3CC=C4CC(O)CCC4(C)C3CCC12C (stereo not drawn) [Compound 16] | 20 to 40 µM | 30.9 ± 1.04 µM | 30.1 ± 1.35 µM | – | – | – | –
18 | C[C@]12CC[C@H](O)C=C1CC[C@@H]1C2CC[C@@]2(C)C1CC[C@@]21CCC(=O)O1 (stereo partly drawn) [Compound 11] | 20 to 40 µM | – | – | 22.7 ± 1.36 µM | 23.7 ± 1.28 µM | – | –
19 | O=[N+]([O-])c1ccc2c(c1)C1C=CCC1C(C1CC=CCC1)N2 (stereo not drawn) [Compound 7] | 10 to 20 µM | – | 13.1 ± 0.87 µM | – | – | – | –
20 | C[C@]12CCC3C(CC[C@H]4CC=CC[C@]34C)C1CC/C2=N/NC(N)=S (stereo partly drawn) [Compound 5] | – | 8.7 ± 1.03 µM | 8.97 ± 0.63 µM | – | – | < 10 µM | –

Reference: patent publication US9561239B2, “Compositions and methods for inhibiting norovirus infection” (Children's Hospital Medical Center, priority 2013, dated 2017)
